Two molecules from ChEMBL document CHEMBL2074491, “Transport of drugs across the hepatic sinusoidal membrane: sinusoidal drug influx and efflux in the liver” (Semin Liver Dis, 2000) can be followed below.

For one series, the system named is Rattus norvegicus. The series is described as follows: TP_TRANSPORTER: Northern blot in vivo, kidney of SD rat. The class given is functional, organism-based. Conditions: Sprague Dawley.
In series [1] the target is T1, Solute carrier organic anion transporter family member 1A1 (Rattus norvegicus, UniProt P46720).
T1 sequence (P46720 whole entry): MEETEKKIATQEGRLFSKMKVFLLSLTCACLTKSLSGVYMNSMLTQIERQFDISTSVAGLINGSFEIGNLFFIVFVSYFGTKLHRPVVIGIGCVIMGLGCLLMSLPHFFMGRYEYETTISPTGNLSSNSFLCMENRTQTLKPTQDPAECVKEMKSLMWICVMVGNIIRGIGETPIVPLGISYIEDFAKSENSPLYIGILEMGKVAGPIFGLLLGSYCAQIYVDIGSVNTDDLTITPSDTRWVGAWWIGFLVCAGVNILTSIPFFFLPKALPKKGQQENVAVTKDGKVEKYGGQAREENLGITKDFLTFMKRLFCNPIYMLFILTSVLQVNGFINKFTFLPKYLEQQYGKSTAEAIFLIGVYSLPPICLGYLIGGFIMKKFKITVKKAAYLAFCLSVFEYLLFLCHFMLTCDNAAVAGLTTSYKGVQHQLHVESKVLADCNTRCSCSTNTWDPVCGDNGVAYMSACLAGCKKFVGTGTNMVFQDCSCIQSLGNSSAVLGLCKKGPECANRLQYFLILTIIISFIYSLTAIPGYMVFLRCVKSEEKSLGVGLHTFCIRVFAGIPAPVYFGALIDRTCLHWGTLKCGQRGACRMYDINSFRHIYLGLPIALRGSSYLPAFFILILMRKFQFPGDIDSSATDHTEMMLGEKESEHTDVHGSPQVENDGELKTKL
The series can be described thus: TP_TRANSPORTER: transport activity. In kind it is functional.

Molecules are shown by their SMILES.

For the molecule `C[C@]12CC[C@@H]3c4ccc(O)cc4CC[C@H]3[C@@H]1CC[C@@H]2O`, the Activity result in the series with Rattus norvegicus was “is not a substrate [-]”. Take `CCCCC[C@H](O)/C=C/[C@@H]1[C@@H](C/C=C\CCCC(=O)O)[C@@H](O)C[C@H]1O` [DINOPROST]: the Activity result in series [1] was “is not a substrate [-]”.
